Laboratory results taken from paper PMC10746543, “Design principles for cyclin K molecular glue degraders” (Nature Chemical Biology, 2023).
Values joined by “and” are separate entries in the source; they are usually repeats but may differ in a detail not shown here. Equal entries are not always repeated.

Biological target: T1, CDK12–cyclin K and DDB1 (Homo sapiens, UniProt Q16531+Q9NYV4, K965R)
T1 construct: His6–CDK12 (a.a. 713–1,052); full-length or beta-propeller B domain deletion (ΔBPB: a.a. 396–705 deleted) constructs of His6–DDB1ΔBPB, StrepII–Avi–DDB1, or His6–Spy–DDB1; made in house; host or cells: Trichoplusia ni High Five insect cells (baculovirus)
Test: TR-FRET ternary complex formation assay (compound titration)
Format: binding
Conditions: for TR-FRET signal at compound concentration: replicate titrations
In short: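 A time delay of 70 μs preceded acquisition, limiting background fluorescence; the ratio of emission at 520 versus 490 nm gave the TR-FRET value.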

[1] = compound concentration 0.468 nM
[2] = compound concentration 7.92001 nM
[3] = compound concentration 15.84 nM
[4] = compound concentration 30.96 nM

T1 sequence (Q9NYV4 713-1052 K965R): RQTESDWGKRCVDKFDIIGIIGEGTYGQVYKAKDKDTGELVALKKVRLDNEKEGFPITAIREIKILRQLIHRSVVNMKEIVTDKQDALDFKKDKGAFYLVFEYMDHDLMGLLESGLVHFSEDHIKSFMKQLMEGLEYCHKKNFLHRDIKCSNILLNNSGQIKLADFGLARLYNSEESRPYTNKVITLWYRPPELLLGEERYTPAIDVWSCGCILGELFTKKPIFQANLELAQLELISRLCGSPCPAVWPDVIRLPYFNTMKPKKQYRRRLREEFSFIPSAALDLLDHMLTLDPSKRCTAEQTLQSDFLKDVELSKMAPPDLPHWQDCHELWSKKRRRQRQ
T1 sequence (O75909 1-267 partner): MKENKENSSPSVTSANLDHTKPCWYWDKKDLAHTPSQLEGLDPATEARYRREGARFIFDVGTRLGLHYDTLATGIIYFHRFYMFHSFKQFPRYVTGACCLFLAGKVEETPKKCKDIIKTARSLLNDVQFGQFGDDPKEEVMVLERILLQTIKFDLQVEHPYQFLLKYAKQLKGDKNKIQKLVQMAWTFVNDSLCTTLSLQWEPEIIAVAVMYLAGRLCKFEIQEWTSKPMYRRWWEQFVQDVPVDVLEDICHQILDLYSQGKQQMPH
T1 sequence (Q16531 whole entry): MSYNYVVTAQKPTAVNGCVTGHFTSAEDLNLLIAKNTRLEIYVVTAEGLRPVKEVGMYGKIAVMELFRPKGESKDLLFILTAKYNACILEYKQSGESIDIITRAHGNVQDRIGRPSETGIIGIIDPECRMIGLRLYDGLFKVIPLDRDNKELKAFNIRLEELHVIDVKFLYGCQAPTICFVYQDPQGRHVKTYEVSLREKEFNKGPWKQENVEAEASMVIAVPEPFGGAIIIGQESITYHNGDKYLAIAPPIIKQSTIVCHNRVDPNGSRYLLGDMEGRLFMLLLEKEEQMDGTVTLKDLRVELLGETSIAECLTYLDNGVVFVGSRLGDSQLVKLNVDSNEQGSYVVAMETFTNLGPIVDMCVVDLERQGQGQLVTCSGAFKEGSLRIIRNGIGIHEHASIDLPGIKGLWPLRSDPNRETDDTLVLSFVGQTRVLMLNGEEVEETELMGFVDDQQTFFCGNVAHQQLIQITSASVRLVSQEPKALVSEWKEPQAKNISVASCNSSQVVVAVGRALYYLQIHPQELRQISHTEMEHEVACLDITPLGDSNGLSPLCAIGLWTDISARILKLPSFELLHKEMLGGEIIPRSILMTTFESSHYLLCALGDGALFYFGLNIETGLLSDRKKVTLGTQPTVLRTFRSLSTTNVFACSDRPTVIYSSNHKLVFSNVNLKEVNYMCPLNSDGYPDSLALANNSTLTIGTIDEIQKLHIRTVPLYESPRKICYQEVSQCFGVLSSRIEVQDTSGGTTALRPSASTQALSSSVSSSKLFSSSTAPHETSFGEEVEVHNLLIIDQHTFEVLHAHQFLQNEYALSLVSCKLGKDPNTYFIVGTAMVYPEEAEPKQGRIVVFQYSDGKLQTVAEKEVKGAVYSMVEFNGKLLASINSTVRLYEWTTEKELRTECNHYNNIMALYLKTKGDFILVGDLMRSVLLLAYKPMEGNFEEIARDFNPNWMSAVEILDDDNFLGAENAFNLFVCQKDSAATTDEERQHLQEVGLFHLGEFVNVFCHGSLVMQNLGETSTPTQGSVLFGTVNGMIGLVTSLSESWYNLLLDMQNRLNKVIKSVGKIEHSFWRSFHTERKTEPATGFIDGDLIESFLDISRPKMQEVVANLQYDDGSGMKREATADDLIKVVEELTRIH

`CCC(CO)Nc1nc(NCc2ccc(-c3ccccn3)cc2)c2ncn(C(C)C)c2n1` (stereo not shown) [CR8, reference compound] was tested, and the “TR-FRET signal, individual replicate” value [1] was 0.3192 and 0.333 and 0.3266 and 0.1622 and 0.1822 and 0.1545 and 0.1541, the “TR-FRET signal at compound concentration 0.468 nM” value (compound concentration 0.468 nM, raw replicate titration data) was 0.3192 and 0.333 and 0.3266 and 0.1622 and 0.1822 and 0.1545 and 0.1541 and 0.2195 and 0.2132 and 0.1986 and 0.2005 and 0.1618 and 0.1794 and 0.2366 and 0.2374 and 0.2769 and 0.2739 and 0.31 and the “TR-FRET signal at compound concentration 0.468 nM” value (compound concentration 0.468 nM, raw titration data) was 0.3192 and 0.333 and 0.3266 and 0.1622 and 0.1822 and 0.1545 and 0.1541 and 0.2195 and 0.2132 and 0.1986 and 0.2005 and 0.1618 and 0.1794 and 0.2366 and 0.2374 and 0.2769 and 0.2739 and 0.31. For the same compound, the “TR-FRET signal at compound concentration” value [1] was 0.3192 and 0.333 and 0.3266 and 0.1622 and 0.1822 and 0.1545 and 0.1541, the “TR-FRET signal, individual replicate” value (compound concentration 2.16 nM) was 0.4573 and 0.4311 and 0.4305 and 0.2659 and 0.27 and 0.2373 and 0.2241 and the “TR-FRET signal at compound concentration 2.16 nM” value (compound concentration 2.16 nM, raw replicate titration data) was 0.4573 and 0.4311 and 0.4305 and 0.2659 and 0.27 and 0.2373 and 0.2241 and 0.3119 and 0.3007 and 0.2892 and 0.2693 and 0.2407 and 0.2691 and 0.3343 and 0.3434 and 0.3949 and 0.3941 and 0.4244. For the same compound, the “TR-FRET signal at compound concentration 2.16 nM” value (compound concentration 2.16 nM, raw titration data) was 0.4573 and 0.4311 and 0.4305 and 0.2659 and 0.27 and 0.2373 and 0.2241 and 0.3119 and 0.3007 and 0.2892 and 0.2693 and 0.2407 and 0.2691 and 0.3343 and 0.3434 and 0.3949 and 0.3941 and 0.4244, the “TR-FRET signal at compound concentration” value (compound concentration 2.16 nM) was 0.4573 and 0.4311 and 0.4305 and 0.2659 and 0.27 and 0.2373 and 0.2241 and the “TR-FRET signal, individual replicate” value (compound concentration 3.6 nM) was 0.7291 and 0.6022 and 0.6555 and 0.4637 and 0.4981 and 0.4299 and 0.4143 and 0.532. The “TR-FRET signal at compound concentration 3.6 nM” value (compound concentration 3.6 nM, raw replicate titration data) was 0.7291 and 0.6022 and 0.6555 and 0.4637 and 0.4981 and 0.4299 and 0.4143 and 0.532 and 0.5274 and 0.5046 and 0.4937 and 0.4479 and 0.5082 and 0.5733 and 0.5902 and 0.6794 and 0.6674 and 0.7173, the “TR-FRET signal at compound concentration 3.6 nM” value (compound concentration 3.6 nM, raw titration data) was 0.7291 and 0.6022 and 0.6555 and 0.4637 and 0.4981 and 0.4299 and 0.4143 and 0.532 and 0.5274 and 0.5046 and 0.4937 and 0.4479 and 0.5082 and 0.5733 and 0.5902 and 0.6794 and 0.6674 and 0.7173 and the “TR-FRET signal at compound concentration” value (compound concentration 3.6 nM) was 0.7291 and 0.6022 and 0.6555 and 0.4637 and 0.4981 and 0.4299 and 0.4143 and 0.532. The “TR-FRET signal, individual replicate” value [2] was 1.345 and 0.9894 and 0.9813 and 0.8825 and 0.9549 and 0.8747 and 0.8749 and 0.9605, the “TR-FRET signal at compound concentration 7.92001 nM” value (compound concentration 7.92001 nM, raw replicate titration data) was 1.345 and 0.9894 and 0.9813 and 0.8825 and 0.9549 and 0.8747 and 0.8749 and 0.9605 and 0.982 and 0.9498 and 0.9487 and 0.89 and 1.021 and 1.066 and 1.149 and 1.341 and 1.311 and 1.1731 and the “TR-FRET signal at compound concentration 7.92001 nM” value (compound concentration 7.92001 nM, raw titration data) was 1.345 and 0.9894 and 0.9813 and 0.8825 and 0.9549 and 0.8747 and 0.8749 and 0.9605 and 0.982 and 0.9498 and 0.9487 and 0.89 and 1.021 and 1.066 and 1.149 and 1.341 and 1.311 and 1.1731. For the same compound, the “TR-FRET signal at compound concentration” value [2] was 1.345 and 0.9894 and 0.9813 and 0.8825 and 0.9549 and 0.8747 and 0.8749 and 0.9605, the “TR-FRET signal, individual replicate” value [3] was 2.359 and 1.808 and 1.67 and 1.71 and 1.978 and 1.839 and 1.833 and 1.762 and the “TR-FRET signal at compound concentration 15.84 nM” value (compound concentration 15.84 nM, raw replicate titration data) was 2.359 and 1.808 and 1.67 and 1.71 and 1.978 and 1.839 and 1.833 and 1.762 and 1.792 and 1.805 and 1.852 and 1.758 and 1.925 and 1.999 and 2.166 and 2.456 and 2.406 and 2.268. For the same compound, the “TR-FRET signal at compound concentration 15.84 nM” value (compound concentration 15.84 nM, raw titration data) was 2.359 and 1.808 and 1.67 and 1.71 and 1.978 and 1.839 and 1.833 and 1.762 and 1.792 and 1.805 and 1.852 and 1.758 and 1.925 and 1.999 and 2.166 and 2.456 and 2.406 and 2.268, the “TR-FRET signal at compound concentration” value [3] was 2.359 and 1.808 and 1.67 and 1.71 and 1.978 and 1.839 and 1.833 and 1.762 and the “TR-FRET signal, individual replicate” value [4] was 3.429 and 2.93 and 2.851 and 3.1006 and 3.279 and 3.156 and 3.142 and 2.862. The “TR-FRET signal at compound concentration 30.96 nM” value (compound concentration 30.96 nM, raw replicate titration data) was 3.429 and 2.93 and 2.851 and 3.1006 and 3.279 and 3.156 and 3.142 and 2.862 and 2.958 and 2.99 and 2.943 and 2.896 and 3.197 and 3.095 and 3.319 and 3.517 and 3.418 and 3.349, the “TR-FRET signal at compound concentration 30.96 nM” value (compound concentration 30.96 nM, raw titration data) was 3.429 and 2.93 and 2.851 and 3.1006 and 3.279 and 3.156 and 3.142 and 2.862 and 2.958 and 2.99 and 2.943 and 2.896 and 3.197 and 3.095 and 3.319 and 3.517 and 3.418 and 3.349 and the “TR-FRET signal at compound concentration” value [4] was 3.429 and 2.93 and 2.851 and 3.1006 and 3.279 and 3.156 and 3.142 and 2.862. For the same compound, the “TR-FRET signal, individual replicate” value (compound concentration 62.6401 nM) was 3.992 and 3.667 and 3.67 (2×) and 3.796 and 3.836 and 3.683 and 3.652.
